# Assays:
# HCT-116 = test: MTS antiproliferative assay HCT116; type: cell-based; settings: Homo sapiens, 72 h of incubation
# Text: (§1) The cell lines used were acquired from the American Type Culture Collection (ATCC), CCRF-CEM (T lymphoblastic leukemia), K562 ([…]), U2OS (osteosarcoma), HCT116 (colon carcinoma), A549 (lung adenocarcinoma) and HCT116p53−/− (HCT116 cell line mutated in p53) Horizon Discovery Ltd., (Waterbeach, Cambridge, United Kingdom).
# (§2) In our laboratory, IMTM, we generated the daunorubicin-resistant subline of CCRF-CEM cells (CEM-DNR bulk) and paclitaxel-resistant subline K562-TAX, as described previously. […] Both ABC transporters are involved in drug resistance. As a control, human fibroblasts MRC-5 and BJ cell lines were used. […] Adherent cells were passaged using PBS containing 0.25% trypsin plus 0.01% EDTA (ethylenediamine tetraacetic acid) every 2–3 days.
# (§3) The antiproliferative activity of compounds was determined using a standard 3-(4,5-dimethylthiazol-2yl)-5-(3-carboxymethoxyphenyl)-2-(4-sulfophenyl)-2H-tetrazolium (MTS) reduction assay on a robotic high throughput screening platform (HighResBio, Boston, MA, USA) following treatment of cells for 3–7 days. The IC50 values were calculated from the appropriate dose–response curves with Dotmatics software (San Diego, CA, USA).
# [1] = tested on: promastigotes of Leishmania (V.) braziliensis strain MHOM/CO/87/UA301; test: MTT viability of L. braziliensis promastigotes; type: cell-based;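 also: promastigote proliferation in 96-well plates, MTT reduction read at 570 nm, EC50 derived from growth curves, cytotoxicity CC50 likewise by MTT in BMDM and VERO cells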
# Protocol: Promastigotes of Leishmania (V.) braziliensis strain MHOM/CO/87/UA301 were isolated from footpad lesions in Balb/C mice previously infected. In the process of maintenance and differentiation of the parasites, the LTI medium (tryptose 15 g/L, yeast extract 5 g/L, liver extract 2 g/L, hemin-NaOH 0.02 g/L, glucose 4 g/L, NaCl 9 g/L, KCl 0.4 g/L Na2HPO4, 7.5 g/L at pH 7.4) supplemented with 10% fetal calf serum and maintained at 29 °C was used.
# Briefly, 96-well plates were used, where 2 × 10^6 parasites/mL were seeded. A concentration of 50 μM was used for each compound and an incubation time of 96 h at 29 °C. 3-(4,5-dimethylthiazol-2-yl)-2,5-diphenyl tetrazolium bromide (MTT) 1 μg/mL was added and incubated in darkness for 4 h, acidic isopropanol (4N) was added and the plate was read at 570 nm in a spectrophotometer Synergy HT (Biotek). Miltefosine was used as a reference drug. The EC50 calculation of the selected compound was performed using growth curves. Direct counting was used to monitor the proliferation of parasites, three independent experiments were performed for each concentration of the compounds evaluated. The in vitro evaluations of compounds toxicity by MTT in VERO and BMDM cells follow a methodology described above with some modifications [60].
# CEM-DNR = test: MTS antiproliferative assay CEM-DNR; type: cell-based; settings: Homo sapiens, 72 h of incubation, daunorubicin-resistant
# Text: as §1, §2, §3
# MRC-5 = test: MTS assay on non-malignant MRC-5; type: cell-based; settings: MRC5; noncancerous human cell line
# Protocol: as §2, §3
# K562-TAX = test: MTS antiproliferative assay K562-TAX; type: cell-based, human; settings: 72 h of incubation, paclitaxel-resistant
# Text: as §1, §2, §3
# CCRF-CEM = test: MTS antiproliferative assay CCRF-CEM; type: cell-based; settings: Homo sapiens, 72 h of incubation
# Text: as §1, §2, §3
# K562 = test: MTS antiproliferative assay K562; type: cell-based, human; settings: for IC50: 72 h of incubation; for times higher cytotoxicity against K562 than K562-TAX: ratio of IC50 values
# Text: as §1, §2, §3
# U2OS = test: MTS antiproliferative assay U2OS; type: cell-based; settings: Homo sapiens, 72 h of incubation
# Text: as §1, §2, §3
# HCT116p53−/− = test: MTS antiproliferative assay HCT116p53-/-; type: cell-based; settings: Homo sapiens; 72 h of incubation
# Text: as §1, §2, §3
# [2] = tested on: epimastigotes of Trypanosoma cruzi strain MHOM/VE/92/YBM; test: MTT viability of T. cruzi epimastigotes; type: cell-based; settings: Trypanosoma cruzi, 72 h, epimastigotes
# BJ = test: MTS assay on non-malignant BJ; type: cell-based; settings: noncancerous human cell line
# Protocol: as §2, §3
# A549 = test: MTS antiproliferative assay A549; type: cell-based, human; settings: 72 h of incubation
# Text: as §1, §2, §3
# A549 cell line = test: Annexin V-FITC/PI flow cytometry apoptosis assay A549; type: cell-based, human; settings: 24 h
# Protocol: (§4) Cell death was assessed after 24 h incubation with compounds 18 and 22. Apoptosis was analyzed by flow cytometry using annexin V-FITC and propidium iodide (PI). Early apoptosis was defined by annexin V-FITC expression and, necrosis by PI expression, late apoptosis by coexpression of annexin V/PI. Doxorubicin and quercetin were used as positive controls. The results of a typical flow cytometry analysis of both compounds are illustrated in Figure 2 and Figure 3. An increase in early apoptosis and late apoptosis was observed; necrosis was less predominant. The results are summarized in Tables S1 and S2 (Supplementary Materials). The expression of annexin V was different depending on the compound used. K562, A549 cell lines were treated as described by the manufacturer (Santa Cruz Biotechnology), washed, and resuspended in annexin V binding buffer (0.01 M HEPES, 0.14 M NaCl, and 2.5 mM CaCl2) with the subsequent incubation of annexinV-FITC and then PI. An Epics XL cytometer (Beckman Coulter, Indianapolis, IN, USA) was used for the analysis. Untreated cells were the negative controls, and doxorubicin (Dox) (1 μM), and quercetin (QC) (50 μM) were the positive controls. Early apoptosis refers to annexin V expression, late apoptosis, the coexpression of annexin V and PI, and necrosis the sole expression of PI. […] The experiments were performed as described before. To avoid the unwanted effects of DMSO, the concentrations of the compounds were never higher than 100 μM.
# K562 cell line = test: Annexin V-FITC/PI flow cytometry apoptosis assay K562; type: cell-based, human; settings: 24 h
# Protocol: as §4
SMILES,IC50 (HCT-116) [µM],"IC50 (K562-TAX; Homo sapiens, K562-Tax, 72 h) [µM]",IC50 (CCRF-CEM) [µM],"IC50 (K562; Homo sapiens, K562, 72 h) [µM]",IC50 (U2OS) [µM],IC50 (HCT116p53−/−) [µM],EC50 [2] [µM],"IC50 (A549; Homo sapiens, A549, 72 h) [µM]",melting point [°C],"EC50 ([1]; 72 h, promastigotes) [µM]",IC50 (CEM-DNR) [µM],IC50 (MRC-5) [µM],IC50 (BJ) [µM],also measured
"O=C1/C(=C/c2cccnc2Oc2ccc(F)cc2)CCc2ccccc21 [Compound 12, (E)-2-{[2-(4-Fluorophenoxy)pyridin-3-yl]methylene}-3,4-dihydronaphthalen-1(2H)-one]",26.4 ± 1.58,32.9 ± 3.19,6.7 ± 0.98,22.4 ± 2.3,23.2 ± 1.9,26.9 ± 3.49,> 100,28.1 ± 4.86,–,> 100,35.6 ± 4.42,> 50,> 50,–
"COc1cccc2c1CC/C(=C\c1cccnc1Oc1ccc(F)cc1)C2=O [Compound 13, (E)-2-{[2-(4-Fluorophenoxy)pyridin-3-yl]methylene}-3,4-dihydro-5-methoxynaphthalen-1(2H)-one]",27.2 ± 2.44,39.3 ± 5.4,6.07 ± 0.59,23.4 ± 2.31,21 ± 2.21,23.5 ± 1.5,> 100,28.4 ± 2.14,154 to 156,> 100,37.3 ± 3.13,> 50,> 50,–
"O=C1/C(=C/c2cccnc2Oc2ccc(Br)cc2)CCc2ccccc21 [Compound 16, (E)-2-{[2-(4-Bromophenoxy)pyridin-3-yl]methylene}-3,4-dihydronaphthalen-1(2H)-one]",29.9 ± 4.59,25.6 ± 5.37,8.7 ± 2.19,23.9 ± 2.28,38 ± 4.47,31.5 ± 62.7,> 100,39.7 ± 1.89,138 to 140,> 100,34.3 ± 3.61,> 50,> 50,–
"COc1cccc2c1CC/C(=C\c1cccnc1Oc1ccc(Br)cc1)C2=O [Compound 17, (E)-2-{[2-(4-Bromophenoxy)pyridin-3-yl]methylene}-3,4-dihydro-5-methoxynaphthalen-1(2H)-one]",> 50,31.4 ± 6.59,12.9 ± 2.07,32 ± 3.72,> 50,> 50,> 100,> 50,158 to 160,> 100,31.7 ± 5.86,> 50,> 50,–
"COc1ccc2c(c1)CC/C(=C\c1cccnc1Oc1ccc(Br)cc1)C2=O [Compound 18, (E)-2-{[2-(4-Bromophenoxy)pyridin-3-yl]methylene}-3,4-dihydro-6-methoxynaphthalen-1(2H)-one]",> 50,17.6 ± 7.09,5.97 ± 0.67,3.91 to 4.33,7.27 ± 0.68,> 50,> 100,9.64 to 9.74,–,> 100,25.7 ± 5.71,> 50,> 50,"AV+/IP+ (late apoptosis) (A549 cell line; A549, 10 µM): 3.28%; AV+/IP- (early apoptosis) (A549 cell line; A549, 10 µM): 11.10%; AV-/IP+ (necrosis) (A549 cell line; A549, 10 µM): 3.06%; AV+/IP+ (late apoptosis) (A549 cell line; A549, 25 µM): 21.10%; AV+/IP- (early apoptosis) (A549 cell line; A549, 25 µM): 40.10%; AV-/IP+ (necrosis) (A549 cell line; A549, 25 µM): 3.12%; AV+/IP+ (late apoptosis) (K562 cell line; K562, 5 µM): 2.84%; AV+/IP- (early apoptosis) (K562 cell line; K562, 5 µM): 22.70%; AV-/IP+ (necrosis) (K562 cell line; K562, 5 µM): 0.89%; AV+/IP+ (late apoptosis) (K562 cell line; K562, 10 µM): 89.50%; AV+/IP- (early apoptosis) (K562 cell line; K562, 10 µM): 8.69%; AV-/IP+ (necrosis) (K562 cell line; K562, 10 µM): 1.12%; annexin V-FITC expression (K562 cell line; K562, 10 µM): higher than 50%; IC50 (K562): 4.33 ± 0.19 µM; times higher cytotoxicity against K562 than K562-TAX (K562): 4.1 times; IC50 (A549): 9.64 ± 1.71 µM"
"COc1cccc2c1C(=O)c1c(O)c3c(c(O)c1C2=O)C[C@@](O)(C(=O)CO)C[C@@H]3O[C@H]1C[C@H](N)[C@H](O)[C@H](C)O1 [Dox, doxorubicin, reference compound]",–,–,–,–,–,–,–,–,–,–,–,–,–,"AV+/IP+ (late apoptosis) (A549 cell line; A549, 1 µM): 33.50%; AV+/IP- (early apoptosis) (A549 cell line; A549, 1 µM): 8.33%; AV-/IP+ (necrosis) (A549 cell line; A549, 1 µM): 29.30%; AV+/IP+ (late apoptosis) (K562 cell line; K562, 1 µM): 29.80%; AV+/IP- (early apoptosis) (K562 cell line; K562, 1 µM): 29.40%; AV-/IP+ (necrosis) (K562 cell line; K562, 1 µM): 19.20%"
"O=c1c(O)c(-c2ccc(O)c(O)c2)oc2cc(O)cc(O)c12 [QC, quercetin, reference compound]",–,–,–,–,–,–,–,–,–,–,–,–,–,"AV+/IP+ (late apoptosis) (A549 cell line; A549, 50 µM): 21.70%; AV+/IP- (early apoptosis) (A549 cell line; A549, 50 µM): 26.10%; AV-/IP+ (necrosis) (A549 cell line; A549, 50 µM): 5.60%; AV+/IP+ (late apoptosis) (K562 cell line; K562, 50 µM): 6.25%; AV+/IP- (early apoptosis) (K562 cell line; K562, 50 µM): 34.30%; AV-/IP+ (necrosis) (K562 cell line; K562, 50 µM): 1.57%"

# More lines, main results first:
IC50 (HCT-116) [µM],"IC50 (K562-TAX; Homo sapiens, K562-Tax, 72 h) [µM]",IC50 (CCRF-CEM) [µM],"IC50 (K562; Homo sapiens, K562, 72 h) [µM]",IC50 (U2OS) [µM],IC50 (HCT116p53−/−) [µM],EC50 [2] [µM],"IC50 (A549; Homo sapiens, A549, 72 h) [µM]",melting point [°C],SMILES,"EC50 ([1]; 72 h, promastigotes) [µM]",IC50 (CEM-DNR) [µM],IC50 (MRC-5) [µM],IC50 (BJ) [µM],also measured
> 50,> 39.2,20.1 ± 2.43,5.74 ± 3.2,> 50,> 50,> 100,43.6 ± 4.12,152 to 154,"COc1ccc2c(c1)CC/C(=C\c1cccnc1Oc1ccc(F)cc1)C2=O [Compound 14, (E)-2-{[2-(4-Fluorophenoxy)pyridin-3-yl]methylene}-3,4-dihydro-6-methoxynaphthalen-1(2H)-one]",> 100,41.3 ± 5.67,> 50,> 50,IC50 (K562-TAX): 39.2 ± 9.37 µM; times higher cytotoxicity against K562 than K562-TAX (K562): 6.8 times
30.5 ± 2.34,19.7 ± 3.78,9.13 ± 1.38,27.7 ± 2.49,26.3 ± 4.61,23.9 ± 2.5,> 100,29.1 ± 5,150 to 152,"COc1ccc2c(c1)C(=O)/C(=C/c1cccnc1Oc1ccc(F)cc1)CC2 [Compound 15, (E)-2-{[2-(4-Fluorophenoxy)pyridin-3-yl]methylene}-3,4-dihydro-7-methoxynaphthalen-1(2H)-one]",> 100,23.1 ± 4.38,> 50,> 50,–
> 50,4.17 ± 2.93,12.9 ± 2.43,43 ± 5.1,> 50,> 50,> 100,> 50,144 to 146,"COc1ccc2c(c1)C(=O)/C(=C/c1cccnc1Oc1ccc(Br)cc1)CC2 [Compound 19, (E)-2-{[2-(4-Bromophenoxy)pyridin-3-yl]methylene}-3,4-dihydro-7-methoxynaphthalen-1(2H)-one]",≤ 60,20 ± 3.99,> 50,> 50,"EC50 ([1]; promastigotes, 72 h): 44.6 ± 1.15 µM"

# — PMC9457600, “Synthesis, Leishmanicidal, Trypanocidal, Antiproliferative Assay and Apoptotic Induction of (2-Phenoxypyridin-3-yl)naphthalene-1(2H)-one Derivatives” (Molecules, 2022)
